Consider seven molecules from patent publication US20250051277A1, “DELIVERY OF THERAPEUTIC ALKALOID COMPOUNDS” (Sensorium Therapeutics, Inc., priority 2021, published 2025).

Where two headings read alike, the source gives them in different places.

Data set [1] is classed as physicochemical. The note with it: SGF with pepsin, pH 1.5, 37° C.; for Condition 1 Conversion (%): 0.5 mM; for Condition 1 Conversion (%), first value of pair x/y: first of two values; for Condition 1 Conversion (%), second value of pair x/y: second of two values.
The format of data set [2] is physicochemical. The following applies: DI water, 25° C., 0.5 mM.

Consider `COc1ccc([C@@]23CCC(=NOCC(=O)OC(C)(C)C)C[C@@H]2N(C)CC3)cc1OC` [Compound 202, tert-butyl 2-[[(3aS,7aS)-3a-(3,4-dimethoxyphenyl)-1-methyl-2,3,4,5,7,7a-hexahydroindol-6-ylidene]amino]oxyacetate], for which the “Condition 1 Conversion (%)” value in data set [1] (time 1 min), in data set [1] (time 5 min) and in data set [1] (time 30 min) was 0% in each case. Moreover, the “Condition 1 Conversion (%), first value of pair x/y” value in data set [1] (time 1 h) worked out at 1.12%; in data set [1] (time 4 h), 3.01%; in data set [1] (time 24 h), 64.4%. The results for the “Condition 1 Conversion (%), second value of pair x/y” value in data set [1] (time 1 h), in data set [1] (time 4 h) and in data set [1] (time 24 h) were 0%, 6.42% and 6.42%, respectively. Further, the “Condition 2 Conversion (%)” value in data set [2] (time 1 min), in data set [2] (time 5 min), in data set [2] (time 30 min), in data set [2] (time 1 h), in data set [2] (time 4 h) and in data set [2] (time 24 h) was 0% throughout.
As for `COc1ccc([C@@]23CCC(=NOCCO)C[C@@H]2N(C)CC3)cc1OC` [Compound 203, 2-[[(3aS,7aS)-3a-(3,4-dimethoxyphenyl)-1-methyl-2,3,4,5,7,7a-hexahydroindol-6-ylidene]amino]oxyethanol], the “Condition 1 Conversion (%)” value in data set [1] (time 1 min) came to 0%; in data set [1] (time 5 min), 0%; in data set [1] (time 30 min), 0%; in data set [1] (time 1 h), 0%; in data set [1] (time 4 h), 18.58%; in data set [1] (time 24 h), 26.48%. Further, the “Condition 2 Conversion (%)” value in data set [2] (time 1 min), in data set [2] (time 5 min), in data set [2] (time 30 min), in data set [2] (time 1 h), in data set [2] (time 4 h) and in data set [2] (time 24 h) was 0% throughout.
As to `COc1ccc([C@@]23CC/C(=N\OC(C)(C)OC)C[C@@H]2N(C)CC3)cc1OC` [Compound 204, (E,3aS,7aS)-3a-(3,4-dimethoxyphenyl)-N-(1-methoxy-1-methyl-ethoxy)-1-methyl-2,3,4,5,7,7a-hexahydroindol-6-imine], the “Condition 1 Conversion (%), first value of pair x/y” value in data set [1] (time 1 min) was determined as 100%; in data set [1] (time 5 min) it was 100%; in data set [1] (time 30 min), 0%; in data set [1] (time 1 h), 0%; in data set [1] (time 4 h), 0%; in data set [1] (time 24 h) it was 0%. The “Condition 1 Conversion (%), second value of pair x/y” value in data set [1] (time 1 min) is reported as 0%; in data set [1] (time 5 min) it was 0%; in data set [1] (time 30 min), 100%; in data set [1] (time 1 h), 100%; in data set [1] (time 4 h), 100%; in data set [1] (time 24 h) it was 100%. In addition, the “Condition 2 Conversion (%)” value in data set [2] (time 1 min), in data set [2] (time 5 min), in data set [2] (time 30 min), in data set [2] (time 1 h), in data set [2] (time 4 h) and in data set [2] (time 24 h) was 0% each time.
`COc1ccc([C@@]23CCC(=NOCC4CC4)C[C@@H]2N(C)CC3)cc1OC` [Compound 205, (3aS,7aS)-N-(cyclopropylmethoxy)-3a-(3,4-dimethoxyphenyl)-1-methyl-2,3,4,5,7,7a-hexahydroindol-6-imine]: the “Condition 1 Conversion (%)” value in data set [1] (time 1 min) came to 0%; in data set [1] (time 5 min), 0%; in data set [1] (time 30 min), 4.5%; in data set [1] (time 1 h), 9.4%; in data set [1] (time 4 h), 16.7%; in data set [1] (time 24 h), 19.3%. For the same molecule, the “Condition 2 Conversion (%)” value in data set [2] (time 1 min), in data set [2] (time 5 min), in data set [2] (time 30 min), in data set [2] (time 1 h), in data set [2] (time 4 h) and in data set [2] (time 24 h) was 0% throughout.
`COc1ccc([C@@]23CCC(=NOC4CCCCO4)C[C@@H]2N(C)CC3)cc1OC` (stereo partly drawn) [Compound 206, (3aS,7aS)-3a-(3,4-dimethoxyphenyl)-1-methyl-N-tetrahydropyran-2-yloxy-2,3,4,5,7,7a-hexahydroindol-6-imine]: the “Condition 1 Conversion (%)” value in data set [1] (time 1 min) and in data set [1] (time 5 min) was 0% in each case. The “Condition 1 Conversion (%), first value of pair x/y” value in data set [1] (time 30 min) was 1.41%; in data set [1] (time 1 h), 7.83%; in data set [1] (time 4 h), 0%; in data set [1] (time 24 h) it was 0%. Besides, the “Condition 1 Conversion (%), second value of pair x/y” value turned out to be 0% in data set [1] (time 30 min), 2.57% in data set [1] (time 1 h), 77.75% in data set [1] (time 4 h) and 100% in data set [1] (time 24 h). The “Condition 2 Conversion (%)” value in data set [2] (time 1 min), in data set [2] (time 5 min), in data set [2] (time 30 min), in data set [2] (time 1 h), in data set [2] (time 4 h) and in data set [2] (time 24 h) was 0% in each case.
As to `COc1ccc([C@@]23CCC(=NOc4ccccc4)C[C@@H]2N(C)CC3)cc1OC` [Compound 207, (3aS,7aS)-3a-(3,4-dimethoxyphenyl)-1-methyl-N-phenoxy-2,3,4,5,7,7a-hexahydroindol-6-imine], the “Condition 1 Conversion (%)” value in data set [1] (time 1 min) is on record as 0%; in data set [1] (time 5 min), 0%; in data set [1] (time 30 min), 0%; in data set [1] (time 1 h) it was 0%; in data set [1] (time 4 h), 1.5%; in data set [1] (time 24 h), 7.9%. Besides, the “Condition 2 Conversion (%)” value in data set [2] (time 1 min), in data set [2] (time 5 min), in data set [2] (time 30 min), in data set [2] (time 1 h), in data set [2] (time 4 h) and in data set [2] (time 24 h) was 0% in each case.
`COc1ccc([C@@]23CCC(=NOCc4ccccc4)C[C@@H]2N(C)CC3)cc1OC` [Compound 208, (3aS,7aS)-N-benzyloxy-3a-(3,4-dimethoxyphenyl)-1-methyl-2,3,4,5,7,7a-hexahydroindol-6-imine]: the “Condition 1 Conversion (%)” value in data set [1] (time 1 min) was found to be 0%; in data set [1] (time 5 min), 0%; in data set [1] (time 30 min) it was 0%; in data set [1] (time 1 h) it was 0%; in data set [1] (time 4 h), 11.5%; in data set [1] (time 24 h) it was 12%. Also, the “Condition 2 Conversion (%)” value in data set [2] (time 1 min), in data set [2] (time 5 min), in data set [2] (time 30 min), in data set [2] (time 1 h), in data set [2] (time 4 h) and in data set [2] (time 24 h) was 0% throughout.
